Measured values taken from PubChem BioAssay AID292 (DTP/NCI, 2004).
Where “and” joins values, the source holds several entries; their conditions need not be identical. Equal entries are not always repeated. Inconclusive results and toxic doses are left out.

Tested on: B6C3F1 mice, ip Sarcoma M5076, median survival T/C
Assay: NCI In Vivo Anticancer Drug Screen. Data for tumor model Sarcoma M5076 (intraperitoneal) in B6C3F1 mice
Settings: endpoint: median survival time, higher = longer survival
Summary of the method: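 Transplantable tumour in mice; compound-treated vs vehicle-treated groups. Read-out: survival. Value = treated/control ratio.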

[1] = dose: 50.0 mg/kg/injection, schedule: Q04DX004 (ip), vehicle: Klucel (hydroxypropylcellulose) (HPC)
[2] = dose: 100.0 mg/kg/injection, schedule: Q04DX004 (ip), vehicle: Klucel (hydroxypropylcellulose) (HPC)
[3] = dose: 200.0 mg/kg/injection, schedule: Q04DX004 (ip), vehicle: Klucel (hydroxypropylcellulose) (HPC)

N[C@@H](C[C@H]1CCC(=O)[C@@H]2O[C@H]12)C(=O)O
T/C (dose: 50.0 mg/kg/injection, schedule: Q04DX004 (ip), vehicle: saline): 97 % of control | T/C (dose: 100.0 mg/kg/injection, schedule: Q04DX004 (ip), vehicle: saline): 106 % of control | T/C (dose: 200.0 mg/kg/injection, schedule: Q04DX004 (ip), vehicle: saline): 117 % of control | T/C (dose: 400.0 mg/kg/injection, schedule: Q04DX004 (ip), vehicle: saline): 115 % of control

Oc1cc(O)cc(/C=C/c2ccc(O)c(O)c2)c1
T/C (dose: 12.5 mg/kg/injection, schedule: Q04DX004 (ip), vehicle: DMSO): 97 % of control | T/C (dose: 25.0 mg/kg/injection, schedule: Q04DX004 (ip), vehicle: DMSO): 99 % of control | T/C (dose: 50.0 mg/kg/injection, schedule: Q04DX004 (ip), vehicle: DMSO): 89 % of control | T/C (dose: 100.0 mg/kg/injection, schedule: Q04DX004 (ip), vehicle: DMSO): 91 % of control

O=C(O)C(O)C(O)C1[O][Sb][O]C1C(=O)O (configuration not stated)
T/C (dose: 9.37 mg/kg/injection, schedule: Q04DX004 (ip), vehicle: saline): 100 % of control | T/C (dose: 9.38 mg/kg/injection, schedule: Q04DX004 (ip), vehicle: saline): 107 % of control | T/C (dose: 18.75 mg/kg/injection, schedule: Q04DX004 (ip), vehicle: saline): 99 % of control and 110 % of control | T/C (dose: 37.5 mg/kg/injection, schedule: Q04DX004 (ip), vehicle: saline): 110 % of control and 114 % of control | T/C (dose: 75.0 mg/kg/injection, schedule: Q04DX004 (ip), vehicle: saline): 99 % of control and 111 % of control

N#Cc1c(-c2ccccc2)c(-c2ccccc2)nn(CC(=O)O)c1=O
T/C (dose: 50.0 mg/kg/injection, schedule: Q04DX004 (ip), vehicle: distilled water + Tween-80): 102 % of control | T/C (dose: 100.0 mg/kg/injection, schedule: Q04DX004 (ip), vehicle: distilled water + Tween-80): 102 % of control | T/C (dose: 200.0 mg/kg/injection, schedule: Q04DX004 (ip), vehicle: distilled water + Tween-80): 97 % of control

O=C1CNC(=O)N1CN1CCOCC1
T/C [1]: 110 % of control | T/C [2]: 106 % of control | T/C [3]: 108 % of control | T/C (dose: 400.0 mg/kg/injection, schedule: Q04DX004 (ip), vehicle: Klucel (hydroxypropylcellulose) (HPC)): 115 % of control | T/C (dose: 800.0 mg/kg/injection, schedule: Q04DX004 (ip), vehicle: Klucel (hydroxypropylcellulose) (HPC)): 106 % of control

CN1C=C/C(=C/[N+](=O)[O-])N(C)C1=O
T/C (dose: 25.0 mg/kg/injection, schedule: Q04DX004 (ip), vehicle: Klucel (hydroxypropylcellulose) (HPC)): 103 % of control | T/C [1]: 103 % of control | T/C [2]: 99 % of control | T/C [3]: 103 % of control

CC(=O)OC1C(O)C(C)OC(OC2C(OC(=O)C3CCC4C(C3)OC3(CC(OC(=O)/C=C/c5ccccc5)C(C)CO3)C43CO3)OC(C)C(O)C2OC(C)=O)C1O (configuration not stated)
T/C (dose: 1.0 mg/kg/injection, schedule: Q01DX009 (ip), vehicle: saline + alcohol): 100 % of control | T/C (dose: 1.0 mg/kg/injection, schedule: Q04DX004 (ip), vehicle: saline + alcohol): 107 % of control | T/C (dose: 2.0 mg/kg/injection, schedule: Q01DX009 (ip), vehicle: saline + alcohol): 105 % of control | T/C (dose: 2.0 mg/kg/injection, schedule: Q04DX004 (ip), vehicle: saline + alcohol): 112 % of control | T/C (dose: 4.0 mg/kg/injection, schedule: Q01DX009 (ip), vehicle: saline + alcohol): 113 % of control | T/C (dose: 4.0 mg/kg/injection, schedule: Q04DX004 (ip), vehicle: saline + alcohol): 116 % of control | T/C (dose: 8.0 mg/kg/injection, schedule: Q01DX009 (ip), vehicle: saline + alcohol): 121 % of control | T/C (dose: 12.96 mg/kg/injection, schedule: Q04DX004 (ip), vehicle: saline + alcohol): 123 % of control | T/C (dose: 21.6 mg/kg/injection, schedule: Q04DX004 (ip), vehicle: saline + alcohol): 115 % of control | T/C (dose: 36.0 mg/kg/injection, schedule: Q04DX004 (ip), vehicle: saline + alcohol): 157 % of control | T/C (dose: 60.0 mg/kg/injection, schedule: Q04DX004 (ip), vehicle: saline + alcohol): 116 % of control | T/C (dose: 100.0 mg/kg/injection, schedule: Q04DX004 (ip), vehicle: saline + alcohol): 115 % of control

N=C(N)c1ccc(Nc2ccc(-c3cc4ccc(C(=N)N)cc4[nH]3)cc2)cc1
T/C (dose: 3.75 mg/kg/injection, schedule: Q04DX004 (ip), vehicle: Klucel (hydroxypropylcellulose) (HPC)): 115 % of control

S=c1sc(-c2ccc(Cl)cc2)nn1CSc1nc2ccccc2[nH]1
T/C (dose: 37.5 mg/kg/injection, schedule: Q04DX004 (ip), vehicle: saline with Tween-80): 105 % of control | T/C (dose: 75.0 mg/kg/injection, schedule: Q04DX004 (ip), vehicle: saline with Tween-80): 98 % of control | T/C (dose: 150.0 mg/kg/injection, schedule: Q04DX004 (ip), vehicle: saline with Tween-80): 96 % of control | T/C (dose: 300.0 mg/kg/injection, schedule: Q04DX004 (ip), vehicle: saline with Tween-80): 95 % of control

Cc1cc2nncn2c2nnnn12
T/C (dose: 12.5 mg/kg/injection, schedule: Q04DX004 (ip), vehicle: water): 101 % of control | T/C (dose: 25.0 mg/kg/injection, schedule: Q04DX004 (ip), vehicle: water): 98 % of control | T/C (dose: 50.0 mg/kg/injection, schedule: Q04DX004 (ip), vehicle: water): 95 % of control | T/C (dose: 100.0 mg/kg/injection, schedule: Q04DX004 (ip), vehicle: water): 101 % of control | T/C (dose: 200.0 mg/kg/injection, schedule: Q04DX004 (ip), vehicle: water): 98 % of control
